Laboratory results as given in ChEMBL document CHEMBL1156547, “10-Hydroxy-7,8-dihydropyrazino[1',2':1,5]pyrrolo[2,3-d]pyridazine-1,9(2H,6H)-diones: potent, orally bioavailable HIV-1 integrase strand-transfer inhibitors with activity against integrase mutants” (Bioorg Med Chem Lett, 2008).

Key:
[1] = tested on: Human immunodeficiency virus 1; experiment: Ratio of IC50 for HIV1 3B with integrase N155S mutation to IC50 for wild type HIV1 3B by single-cycle viral replication assay in presence of 10% FBS; format: functional
[2] = tested on: Human immunodeficiency virus 1; experiment: Ratio of IC50 for HIV1 3B with integrase T66I/S153Y mutation to IC50 for wild type HIV1 3B by single-cycle viral replication assay in presence of 10% FBS; format: functional
[3] = tested on: Human immunodeficiency virus 1; experiment: Antiviral activity against wild type HIV1 3B in human P4/R5 cells assessed as beta-galactosidase activity by single-cycle viral replication assay in presence of 10% FBS; format: functional, organism-based; settings: Human immunodeficiency virus 1, 3B
[4] = tested on: Human immunodeficiency virus 1; experiment: Antiviral activity against HIV1 3B in human MT4 cells assessed as reduction in p24 antigen levels after 72 hrs by multi-cycle viral replication assay in presence of 10% FBS; format: functional
[5] = tested on: Human immunodeficiency virus 1; experiment: Ratio of IC50 for HIV1 3B with integrase F121Y mutation to IC50 for wild type HIV1 3B by single-cycle viral replication assay in presence of 10% FBS; format: functional
[6] = tested on: Human immunodeficiency virus 1; experiment: Antiviral activity against HIV1 3B in human MT4 cells assessed as reduction in p24 antigen levels after 72 hrs by multi-cycle viral replication assay in presence of 50% normal human serum; format: functional
[7] = Volume of distribution in Sprague-Dawley rat at 2 mg/kg, iv; format: ADME, organism-based; set-up: dose 2 mg/kg, route intravenous; settings: in vivo
[8] = Oral bioavailability in Sprague-Dawley rat at 10 mg/kg; format: ADME, organism-based; settings: in vivo
[9] = Clearance in Sprague-Dawley rat at 2 mg/kg, iv; format: ADME, organism-based; set-up: dose 2 mg/kg, route intravenous; settings: in vivo
[10] = Plasma half life in Sprague-Dawley rat at 2 mg/kg, iv; format: ADME, organism-based; set-up: dose 2 mg/kg, route intravenous
[11] = Oral bioavailability in Beagle dog; format: ADME, organism-based, Canis lupus familiaris; settings: in vivo
[12] = tested on: Human immunodeficiency virus 1; experiment: Antiviral activity against HIV1 with integrase Q148K mutation relative to wild type HIV1; format: functional
[13] = target: Human immunodeficiency virus type 1 integrase (Human immunodeficiency virus 1, UniProt Q7ZJM1); experiment: Inhibition of HIV1 integrase strand transfer activity
Sequence of Human immunodeficiency virus type 1 integrase (Q7ZJM1 whole entry): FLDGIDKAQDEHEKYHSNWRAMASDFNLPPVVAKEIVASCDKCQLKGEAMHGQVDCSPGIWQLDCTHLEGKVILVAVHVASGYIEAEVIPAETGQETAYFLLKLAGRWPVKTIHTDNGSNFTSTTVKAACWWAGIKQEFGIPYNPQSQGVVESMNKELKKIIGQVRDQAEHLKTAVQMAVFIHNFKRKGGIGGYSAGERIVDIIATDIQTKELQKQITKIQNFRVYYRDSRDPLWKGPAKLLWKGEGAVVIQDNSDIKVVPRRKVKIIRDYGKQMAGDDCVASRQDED

[14] = Clearance in Beagle dog; format: ADME, organism-based, Canis lupus familiaris; settings: in vivo
Canis familiaris = experiment: Half life in iv dosed Beagle dog; format: ADME, organism-based, Canis lupus familiaris; settings: in vivo

Row | Structure (SMILES) | Ratio IC50 [1] | Ratio IC50 [2] | IC50 [3] | Antiviral activity (p24 reduction) [4] | Ratio IC50 [5] | IC95 [6] | Vd [7] | bioavailability [8] | clearance [9] | half-life [10] | bioavailability [11] | fold change (FC) [12] | IC50 [13] | clearance [14] | T1/2 (Canis familiaris)
1 | CCN1C[C@@H](C)n2c(c(O)c3c(=O)n(Cc4ccc(F)cc4)ncc32)C1=O | 10 | 9 | 52 nM | 250 nM | 8 | 500 nM |  |  |  |  |  |  |  |  | 
2 | CC(C)N1C[C@H](C)n2c(c(O)c3c(=O)n(Cc4ccc(F)c(Cl)c4)ncc32)C1=O | 3 | 1 | 28 nM | 30 nM | 1 | 220 nM | 0.2 L/kg | 14% | 0.17 mL/min/kg | 780 min |  |  |  |  | 
3 | Cc1nn(Cc2ccc(F)cc2)c(=O)c2c(O)c3n(c12)[C@H](C)CN(C)C3=O | 91 | 8 | 66 nM | 250 nM | 9 | 1000 nM |  |  |  |  |  |  |  |  | 
4 | CCN1C[C@H](C)n2c(c(O)c3c(=O)n(Cc4ccc(F)cc4)nc(C)c32)C1=O | 6 | 1 | 14 nM | 17 nM | 1 | 40 nM | 2.6 L/kg | 7% | 17 mL/min/kg | 372 min |  |  |  |  | 
5 | CCN1CC(C)(C)n2c(c(O)c3c(=O)n(Cc4ccc(F)cc4)ncc32)C1=O | 27 | 3 | 19 nM | 10 nM | 10 | 30 nM | 0.3 L/kg | 13% | 0.68 mL/min/kg | 312 min |  |  |  |  | 
6 | CCN1C[C@H](C)n2c(c(O)c3c(=O)n(Cc4ccc(F)cc4)ncc32)C1=O | 27 | 1 | 16 nM | 24 nM | 5 | 46 nM | 0.2 L/kg | 31% | 0.5 mL/min/kg | 360 min |  |  |  |  | 
7 | CN1CCn2c(c(O)c3c(=O)n(Cc4ccc(F)cc4)ncc32)C1=O | 53 | 7 | 72 nM | 120 nM | 11 | 380 nM |  |  |  |  |  |  |  |  | 
8 | Cc1nn(Cc2ccc(F)cc2)c(=O)c2c(O)c3n(c12)CCN(C)C3=O | 48 | 8 | 21 nM | 43 nM | 10 | 130 nM |  |  |  |  |  |  |  |  | 
9 | Cc1nn(Cc2ccc(F)cc2)c(=O)c2c(O)c3n(c12)[C@@H](C)CN(C(C)C)C3=O | 2 | 1 | 10 nM | 16 nM | 1 | 35 nM | 0.3 L/kg | 17% | 3 mL/min/kg | 318 min | < 5% | 3 | ≤ 10 nM | 10 mL/min/kg | 1 h
10 | CC(C)N1C[C@H](C)n2c(c(O)c3c(=O)n(Cc4ccc(F)cc4)ncc32)C1=O | 6 | 1 | 19 nM | 13 nM | 2 | 26 nM | 0.2 L/kg | 21% | 0.17 mL/min/kg | 720 min | < 5% | 45 | ≤ 10 nM | 10 mL/min/kg | 1 h
11 | CCN1C[C@H](C)n2c(c(O)c3c(=O)n(Cc4ccc(F)c(Cl)c4)ncc32)C1=O | 7 | 1 | 19 nM | 31 nM | 2 | 160 nM | 0.3 L/kg | 13% | 0.27 mL/min/kg | 570 min |  |  |  |  | 
12 | Cc1nn(Cc2ccc(F)cc2)c(=O)c2c(O)c3n(c12)[C@@H](C)CN(C)C3=O | 20 | 2 | 10 nM | 10 nM | 4 | 31 nM |  |  |  |  |  |  |  |  | 
